Source: paper PMC13223435, “Synthesis and Antiproliferative Activity against Melanoma Cells of New Heterocyclic Hybrids Based on Pyridine and Pyrimidine Scaffolds” (Current Medicinal Chemistry, 2025)

Assays:
[1] = system: A375 cells; assay: Live-cell imaging (time-lapse microscopy); format: cell-based
Experimental: For live-cell imaging, A375 cells were seeded into 96-well plates at a density of 2×10^3 cells per well and allowed to grow for 24 h before imaging. Next, the cell culture medium was carefully removed, and new medium containing 16b (at 2 µM and 10 µM) and 29 (at 5 µM and 10 µM) was added and the cell culture plate was placed in the imaging chamber of Agilent BioTek Lionheart FX automated microscope (Agilent Technologies, Inc., Santa Clara, CA, USA) equipped with a Plan Fluorite 20x/0.75 objective (Olympus, Nishi-Shinjuki, Tokyo, Japan), and a FLIR Blackfly BFLY-U3-23S6M camera (Teledyne FLIR, Wilsonville, OR, USA). The temperature in the imaging chamber was set to 37°C and CO2 level to 5%. The bright-field images were acquired every 5 minutes for 48 hours.

[2] = system: melanoma A375 cells; assay: WST-1 antiproliferative assay; format: cell-based; conditions: Homo sapiens, A-375; for activity at 10 µM: 48 h of treatment, A375, read-out: Cell proliferation (% control); for IC50: 48 hours of treatment
Source text: (§1) The A375 malignant melanoma cell line (ECACC 88113005, Salisbury, UK) was procured from the European Collection of Authenticated Cell Cultures (ECACC). The primary culture of human dermal fibroblasts (HDF) was derived from skin according to the protocol approved by the Ethical Committee of Pomeranian Medical University in Szczecin (KB-0012/02/18). The detailed protocol of fibroblast isolation, authentication, and cell culture conditions was previously described. Both cell lines were cultivated in a humidified incubator under conditions of 5% CO2 and a temperature of 37°C, using Dulbecco’s modified Eagle’s medium (DMEM) with 4500 mg/L glucose (Sigma-Aldrich Merck Group, St. Louis, MO, USA) enriched with 10% heat-inactivated fetal bovine serum (FBS, EURx, Gdańsk, Poland), 2 mM L-glutamine (Sigma-Aldrich Merck Group, St. Louis, MO, USA), and penicillin-streptomycin solution (Sigma-Aldrich Merck Group, St. Louis, MO, USA). Regular assessments for the presence of mycoplasma were conducted using the MycoAlert® Mycoplasma Detection Kit (Lonza, Rockland, ME, USA).
(§2) The evaluation of the antiproliferative activity of the compounds was performed using the Cell Proliferation Reagent WST-1 assay (Roche, Germany). This assay relies on the reduction of tetrazolium salt to formazan, with the final amount of formazan proportional to the number of viable cells. In our study, A375 cells (2×10^3) and HDF (3×10^3) were initially seeded into 96-well plates and cultured in a humidified atmosphere of 5% CO2 at 37°C. 24 hours later, the culture medium was replaced with a medium containing the tested compounds for a 48-hour incubation period at specified final concentrations. […] For control purposes, cells without the tested compounds, which contained only the vehicle (DMSO), were used. Additionally, a blank sample consisting of tested compounds in a medium (without cells) was included. After the 48-hour incubation period, the WST-1 reagent was introduced and allowed to incubate with the cells for 30 minutes. The absorbance was subsequently measured at 450 nm with background correction at 620 nm using a microplate reader (Infinite 200 Pro, Tecan, Männedorf, Switzerland). Cell viability was calculated according to the following formula: [(Atest–Ablank)/ (Acontrol − Ablank)] × 100%. These measurements were conducted in triplicate for at least three independent experiments.
In the screening step, 10 µM solutions of all 33 compounds were tested on A375 cells. […] Selected compounds (2c, 18e, 16b, 29) were tested at concentrations of 0.1, 1, 10, 50, and 100 µM. The IC50 values were determined using an online calculator (AAT Bioquest, Inc., Quest Graph™ IC50 Calculator (v.1). Retrieved from https://www.aatbio.com/tools/IC50-calculator-v1, accessed on: 2022, December 12).

[3] = target: T1, tubulin (Sus scrofa, UniProt P02550+P02554); assay: Cell free tubulin polymerization assay (fluorescence-based); format: biochemical
T1 construct: purchased Cytoskeleton, Denver, CO, USA
T1 sequence (P02554 whole entry): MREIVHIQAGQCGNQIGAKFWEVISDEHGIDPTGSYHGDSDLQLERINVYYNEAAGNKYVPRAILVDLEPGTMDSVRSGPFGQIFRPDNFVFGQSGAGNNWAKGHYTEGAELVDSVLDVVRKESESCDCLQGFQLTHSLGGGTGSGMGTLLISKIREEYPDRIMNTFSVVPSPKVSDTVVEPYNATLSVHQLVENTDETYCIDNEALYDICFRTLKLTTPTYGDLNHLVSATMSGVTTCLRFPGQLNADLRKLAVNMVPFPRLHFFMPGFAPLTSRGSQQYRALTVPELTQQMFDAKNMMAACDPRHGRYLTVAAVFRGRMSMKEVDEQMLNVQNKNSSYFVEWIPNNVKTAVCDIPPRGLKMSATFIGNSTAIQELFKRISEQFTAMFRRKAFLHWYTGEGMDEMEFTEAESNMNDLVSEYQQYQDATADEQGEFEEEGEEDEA
T1 sequence (P02550 whole entry): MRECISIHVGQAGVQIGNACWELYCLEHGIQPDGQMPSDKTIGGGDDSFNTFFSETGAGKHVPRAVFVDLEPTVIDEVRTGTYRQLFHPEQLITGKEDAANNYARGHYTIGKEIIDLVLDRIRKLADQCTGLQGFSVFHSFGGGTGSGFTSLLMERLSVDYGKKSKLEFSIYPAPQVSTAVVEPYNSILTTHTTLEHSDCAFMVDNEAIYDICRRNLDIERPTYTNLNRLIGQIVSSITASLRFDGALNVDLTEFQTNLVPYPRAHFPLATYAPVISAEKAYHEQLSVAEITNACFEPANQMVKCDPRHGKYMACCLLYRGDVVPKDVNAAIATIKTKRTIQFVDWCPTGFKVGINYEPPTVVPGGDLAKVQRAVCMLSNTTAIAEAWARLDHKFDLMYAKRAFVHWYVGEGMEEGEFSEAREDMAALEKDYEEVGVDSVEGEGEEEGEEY
Experimental: The tubulin polymerization process was evaluated using a tubulin (>99% pure) and fluorescence-based tubulin polymerization kit (Cytoskeleton, Denver, CO, USA). The effects of compounds 16b and 29 (at final concentrations of 1, 10, 50, 100 µM) on tubulin polymerization were evaluated in cell-free conditions. Paclitaxel (PTX) and vinblastine (VBL) (3 µM) were used as references, and DMSO (0.2%) was used as the vehicle control. This assay tracks the process of tubulin polymerization through an increase in fluorescence resulting from the addition of a fluorescence reporter to microtubules as polymerization occurs. After incubating the tested compounds at 37°C for 1 minute, the icy tubulin reaction mixture (2 mg/mL tubulin, 1.0 mM GTP, 15% glycerol in buffer containing 80 mM PIPES, 2.0 mM MgCl2, 0.5 mM EGTA, pH 6.9, and 10 µM fluorescent reporter) was added to the samples, which were then mixed and monitored using a spectrophotometric microplate reader (Infinite 200 Pro, Tecan) at 1-minute intervals for 90 minutes at 37°C (excitation: 360 nm, emission: 450 nm). The software installed on the plate reader was used to compute the maximum slope (Vmax) of the growth phase, measured in RFU/min, as outlined in the manufacturer's instructions. Each polymerization curve's Vmax was then standardized against the control curve's Vmax. The IC50 values were determined using an online tool (AAT Bioquest, Inc., Quest Graph™ IC50 Calculator ((v.1). Retrieved from https://www.aatbio.com/tools/IC50-calculator-v1, accessed on: 2024, May 6).

[4] = system: human dermal fibroblasts (HDF); assay: WST-1 assay on non-tumor cells (selectivity); format: cell-based
Source text: as §1, §2
(§3) For that purpose, non-tumor HDF cells were used and the concentrations of tested compounds were increased to 200 µM (0.4% DMSO) and 500 µM (1% DMSO). Appropriate controls were prepared for higher concentrations of DMSO.

[5] = WST-1 assay on non-tumor cells (selectivity); format: cell-based, human; conditions: human, primary human dermal fibroblasts (HDF); at 500 µM
Source text: as §1, §2, §3

[6] = system: A375 cells; assay: Annexin V-PE/7-AAD apoptosis assay (Muse); format: cell-based; conditions: 48 h, early and late apoptotic
Experimental: In this study, A375 cells were initially seeded into 24-well plates at a density of 1×10^4 cells per well. After 24 hours, the cell culture medium was carefully removed, and a new medium containing 16b and 29 at varying final concentrations (1, 5, and 10 µM) was added, followed by an additional 48-hour incubation. Cells in a medium containing 0.2% DMSO served as the control group. After the treatment period, cells were washed with phosphate-buffered saline (PBS), and both the cell medium and PBS wash were retained. The cells were then detached using trypsin and centrifuged. The resulting cell pellet was suspended in a fresh medium after discarding the supernatant. An equivalent volume of Muse Annexin V & Dead Cell Reagent (Luminex Corporation, Austin, TX, USA) was added and thoroughly mixed through repeated pipetting. The staining procedure was conducted for 20 minutes at room temperature in the absence of light. The Muse Cell Analyzer (Luminex Corporation, Austin, TX, USA) was utilized for analysis. This assay detects phosphatidylserine (PS) on apoptotic cell surfaces using annexin V-PE (phycoerythrin) binding. A 7-AAD (7-aminoactinomycin D) marker was used to assess cell membrane integrity. The dual staining approach enabled the identification of four distinct cell groups: viable (Annexin V-PE− and 7-AAD−), early apoptotic (Annexin V-PE+ and 7-AAD−), late apoptotic/dead (Annexin V-PE+ and 7-AAD+), and primarily nuclear debris (Annexin V-PE− and 7-AAD+). The findings were based on at least three separate experimental runs.

SMILES	activity at 10 µM [2] [%]	also measured
COc1ccc(/C=C\c2cc(OC)c(OC)c(OC)c2)cc1O [CA-4, combretastatin-4, reference compound]		time-lapse observation of A375 cells ([1]; 1 µM, positive control): caused the formation of characteristic protrusions, indicating changes in the organization of the cytoskeleton leading to apoptosis with typical apoptotic bodies
COc1cc(-c2cnc(=S)[nH]c2)cc(OC)c1OC [Compound 1d]	99.2 ± 10.8	
COc1ccc(C2=CNC(=S)N(Cc3ccccc3)C2C#Cc2ccccc2)cc1 (centres unmarked) [Compound 2a]	100 ± 6.85	
COc1ccc(C2=CNC(=S)N(C)C2C#Cc2ccsc2)cc1 (centres unmarked) [Compound 2b]	92.4 ± 2.51	
S=C1NC=C(c2ccccc2)C(C#Cc2ccsc2)N1Cc1ccccc1 (centres unmarked) [Compound 2c]	44.8 ± 6.68	IC50 [2]: 59.3 ± 9.62 µM
COc1ccc(C2=CNC(=S)N(C)C2C#Cc2ccccn2)cc1 (centres unmarked) [Compound 2d]	93.3 ± 16.6	
COc1cc(C2=CNC(=S)NC2Cc2ccccc2)cc(OC)c1OC (centres unmarked) [Compound 2e]	138 ± 19.5	
COc1cc(C2=CNC(=S)NC2c2cccs2)cc(OC)c1OC (centres unmarked) [Compound 2f]	127 ± 9.99	
COc1ccc(C#Cc2ccsc2)cn1 [Compound 4b]	111 ± 10.8	
O=c1ccc(C#Cc2cccs2)c[nH]1 [Compound 5a]	114 ± 4.12	
O=c1ccc(C#Cc2ccsc2)c[nH]1 [Compound 5b]	113 ± 9.77	
S=C1CC(Cc2ccccc2)C(C#Cc2cccs2)=CN1 (centres unmarked) [Compound 6a]	101 ± 9.41	
S=C1CC(Cc2ccccc2)C(C#Cc2ccsc2)=CN1 (centres unmarked) [Compound 6b]	101 ± 6.05	
O=c1ccc(-n2cc(-c3ccsc3)nn2)c[nH]1 [Compound 9a]	114 ± 14.5	
O=C1CC(Cc2ccccc2)C(n2cc(-c3ccsc3)nn2)=CN1 (centres unmarked) [Compound 10a]	98.8 ± 12.6	
O=C1CC(Cc2ccccc2)C(n2cc(-c3ccccc3)nn2)=CN1 (centres unmarked) [Compound 10b]	96.1 ± 4.11	
O=c1ccc(-c2csc3ccccc23)c[nH]1 [Compound 12a]	106 ± 6.52	

SMILES	activity at 10 µM [2] [%]	also measured
O=c1ccc(-c2cccc3sccc23)c[nH]1 [Compound 12b]	97.8 ± 6.41	
S=c1ccc(-c2csc3ccccc23)c[nH]1 [Compound 13a]	100 ± 3.65	
S=c1ccc(-c2cccc3sccc23)c[nH]1 [Compound 13b]	77.5 ± 13.1	
S=c1ccc(-c2cccs2)cn1Cc1ccc2c(c1)OCO2 [Compound 16a]	99.1 ± 3.1	
S=C1CC=C(c2cccs2)C(Cc2ccccc2)N1CC1CC1 (centres unmarked) [Compound 17c]	117 ± 2.07	
S=C1CC=C(c2ccco2)C(Cc2ccccc2)N1CC1CC1 (centres unmarked) [Compound 17d]	98.7 ± 1.41	
S=C1CC(Cc2ccccc2)C(c2ccco2)=CN1 (centres unmarked) [Compound 18e]	51.4 ± 18.5	IC50 [2]: 10.1 ± 0.75 µM
O=C1CC(Cc2ccccc2)C(C(=O)N2CCOCC2)=CN1 (centres unmarked) [Compound 21]	117 ± 13	
Cn1c(CC2C=CN(c3ccccc3)C(=O)C2)cc2ccccc21 (centres unmarked) [Compound 23a]	67.6 ± 13.3	
Cn1c(CC2C=CN(c3ccccc3)C(=S)C2)cc2ccccc21 (centres unmarked) [Compound 23b]	81.4 ± 14.9	
Cn1c(CC2C=CCC(=O)N2c2ccccc2)cc2ccccc21 (centres unmarked) [Compound 24a]	107 ± 14.2	
O=C1CC(Cc2nc3ccccc3o2)C=CN1c1ccccc1 (centres unmarked) [Compound 25a]	104 ± 1.5	
S=C1CC(Cc2nc3ccccc3o2)C=CN1c1ccccc1 (centres unmarked) [Compound 25b]	88.9 ± 8.81	
CN1C=C(c2ccccc2)[C@@H](c2ccccc2)[C@H](C(=O)c2ccccc2)C1=S [Compound 29]	24.7 ± 4.73	time-lapse observation of A375 cells ([1]; 5 µM, 48 h): more normal cells in the field of view than in the case of the same concentration of 16b; IC50 ([3]; Vmax normalised to control, read-out: tubulin polymerization inhibition IC50): > 100 µM; effect on tubulin polymerization ([3]; all tested concentrations (1-100 µM)): not interacting with tubulin; IC50 [2]: 4.85 ± 1.67 µM; IC50 ([4]; Fibroblast, 48 hours of treatment, normal human dermal fibroblasts): > 500 µM; Selectivity index (SI) ([4]; IC50 normal cells (HDF)/IC50 cancer cell (A375)): > 100; viability at 48 h, 500 µM [5]: 85.9 ± 7.47%; percentage of annexin-positive cells ([6]; 5 µM): 8.28 ± 1.80%; percentage of annexin-positive cells ([6]; 10 µM): 21.38 ± 1.55%
CC(=O)O[C@H]1C(=O)[C@@]2(C)[C@H]([C@H](OC(=O)c3ccccc3)[C@]3(O)C[C@H](OC(=O)[C@H](O)[C@@H](NC(=O)c4ccccc4)c4ccccc4)C(C)=C1C3(C)C)[C@]1(OC(C)=O)CO[C@@H]1C[C@@H]2O [PTX, Paclitaxel, reference compound]		effect on tubulin polymerization ([3]; 3 µM): reduced the duration of the nucleation phase and increased the Vmax
CC[C@]1(O)C[C@@H]2CN(CCc3c([nH]c4ccccc34)[C@@](C(=O)OC)(c3cc4c(cc3OC)N(C)[C@H]3[C@@](O)(C(=O)OC)[C@H](OC(C)=O)[C@]5(CC)C=CCN6CC[C@]43[C@@H]65)C2)C1 [VBL, vinblastine, reference compound]		effect on tubulin polymerization ([3]; 3 µM): suppressed tubulin polymerization, resulting in decreased Vmax and reduced final polymer mass of protein
